Laboratory results reported in patent publication US20020137929A1, “1 - (3-heterocyclylphenyl) isothiourea, -isourea, -guanidine and -amidine herbicidal agents” (Intellectual Property Department, BASF Aktiengesellschaft, priority 1998, published 2002).

Experiments:
[1] = system: ABUTH (Velvetleaf); assay: Postemergence herbicidal evaluation; type: in vivo, Abutilon theophrasti; details: postemergence
Procedure, shortened: (§1)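 Compound is applied as a foliar spray to seedlings about two weeks old, formulated in equal parts acetone and water with 0.5% TWEEN 20 and delivered at 40 psi to give about 0.0156–0.500 kg per hectare. Injury is rated visually 0–9 after four to five weeks.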

[2] = system: GLXMAW (Soybean, Williams); assay: Postemergence herbicidal evaluation; type: in vivo, Glycine max, (L.) Merr. cv Williams; details: postemergence
Procedure, shortened: as §1

[3] = system: IPOHE (Morningglory, Ivyleaf); assay: Preemergence herbicidal evaluation; type: in vivo, Ipomoea hederacea; details: rated 4-5 weeks after treatment
Procedure, shortened: (§2)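 Seeds were mixed with potting soil and planted on about one inch of soil, then sprayed with test compound in aqueous acetone at about 0.0156 to 0.500 kg per hectare. Plants grew under standard greenhouse care and were visually rated 0-9 against untreated controls 4-5 weeks post-treatment.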

[4] = system: ECHORC (Watergrass (Calif.)); assay: Preemergence weed control under flooded paddy conditions; type: in vivo, Echinochloa oryzoides; details: rated 3-4 weeks after treatment
Procedure, shortened: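 Flooded-pot preemergence screen with silt loam and seeds in the upper 0.5 cm. Dose about 0.0313 to 0.500 kg/ha, delivered into flood water; visual 0-9 score after 3 to 4 weeks.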

[5] = system: ECHCG (Barnyardgrass); assay: Preemergence herbicidal evaluation; type: in vivo, Echinochloa crus-galli; details: rated 4-5 weeks after treatment
Procedure, shortened: as §2

[6] = system: ZEAMX (Corn, Field); assay: Postemergence herbicidal evaluation; type: in vivo, Zea mays; details: postemergence
Procedure, shortened: as §1

[7] = system: SETVI (Foxtail, Green); assay: Postemergence herbicidal evaluation; type: in vivo, Setaria viridis; details: postemergence
Procedure, shortened: as §1

[8] = system: CYPSE (Flatsedge); assay: Preemergence weed control under flooded paddy conditions; type: in vivo, Cyperus serotinus; details: rated 3-4 weeks after treatment
Procedure, shortened: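 Values are visual 0-9 scores against a control for a preemergence application into paddy flood water at about 0.0313 to 0.500 kg/ha. Greenhouse duration was three to four weeks.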

[9] = system: CASOB (Sicklepod); assay: Preemergence herbicidal evaluation; type: in vivo, Cassia obtusifolia; details: rated 4-5 weeks after treatment
Procedure, shortened: as §2

[10] = system: AMBEL (Ragweed, Common); assay: Preemergence herbicidal evaluation; type: in vivo, Ambrosia artemisifolia; details: rated 4-5 weeks after treatment
Procedure, shortened: as §2

[11] = system: ABUTH (Velvetleaf); assay: Preemergence herbicidal evaluation; type: in vivo, Abutilon theophrasti; details: rated 4-5 weeks after treatment
Procedure, shortened: as §2

[12] = system: IPOHE (Morningglory, Ivyleaf); assay: Postemergence herbicidal evaluation; type: in vivo, Ipomoea hederacea; details: postemergence
Procedure, shortened: as §1

Structure (SMILES): CC(C)N1C(=O)CSC1=Nc1cc(-n2c(=O)cc(C(F)(F)F)n(C)c2=O)c(F)cc1Cl [Compound 164, 3-{4-Chloro-2-fluoro-5-[(3-isopropyl-4-oxo-2-thiazolidinylidene)amino]phenyl}-1-methyl-6-(trifluoromethyl)-2,4(1H,3H)-pyrimidinedione]
- Herbicidal rating ABUTH ([1]; rate 0.0156 kg/ha): 9.0
- Herbicidal rating ABUTH ([1]; rate 0.0313 kg/ha): 9.0
- Herbicidal rating ABUTH ([1]; rate 0.0625 kg/ha): 9.0
- Herbicidal rating ABUTH ([1]; rate 0.1250 kg/ha): 9.0
- Herbicidal rating GLXMAW ([2]; rate 0.0156 kg/ha): 6.0
- Herbicidal rating GLXMAW ([2]; rate 0.0313 kg/ha): 6.0
- Herbicidal rating GLXMAW ([2]; rate 0.0625 kg/ha): 7.0
- Herbicidal rating GLXMAW ([2]; rate 0.1250 kg/ha): 7.5
- Preemergence herbicidal rating IPOHE ([3]; 0.0156 kg/ha): 4.0
- Preemergence herbicidal rating IPOHE ([3]; 0.0313 kg/ha): 9.0
- Preemergence herbicidal rating IPOHE ([3]; 0.0625 kg/ha): 9.0
- Preemergence herbicidal rating IPOHE ([3]; 0.1250 kg/ha): 9.0
- Preemergence herbicidal rating IPOHE ([3]; 0.2500 kg/ha): 9.0
- Preemergence herbicidal rating IPOHE ([3]; 0.5000 kg/ha): 9.0
- herbicidal effect rating, ECHORC ([4]; 0.0313 kg/ha): 6.0
- herbicidal effect rating, ECHORC ([4]; 0.0625 kg/ha): 7.0
- herbicidal effect rating, ECHORC ([4]; 0.1250 kg/ha): 9.0
- herbicidal effect rating, ECHORC ([4]; 0.2500 kg/ha): 9.0
- Preemergence herbicidal rating ECHCG ([5]; 0.0156 kg/ha): 0.0
- Preemergence herbicidal rating ECHCG ([5]; 0.0313 kg/ha): 7.0
- Preemergence herbicidal rating ECHCG ([5]; 0.0625 kg/ha): 7.0
- Preemergence herbicidal rating ECHCG ([5]; 0.1250 kg/ha): 9.0
- Preemergence herbicidal rating ECHCG ([5]; 0.2500 kg/ha): 9.0
- Preemergence herbicidal rating ECHCG ([5]; 0.5000 kg/ha): 9.0
- Herbicidal rating ZEAMX ([6]; rate 0.0156 kg/ha): 5.0
- Herbicidal rating ZEAMX ([6]; rate 0.0313 kg/ha): 5.0
- Herbicidal rating ZEAMX ([6]; rate 0.0625 kg/ha): 5.5
- Herbicidal rating ZEAMX ([6]; rate 0.1250 kg/ha): 6.5
- Herbicidal rating SETVI ([7]; rate 0.0156 kg/ha): 4.0
- Herbicidal rating SETVI ([7]; rate 0.0313 kg/ha): 7.0
- Herbicidal rating SETVI ([7]; rate 0.0625 kg/ha): 9.0
- Herbicidal rating SETVI ([7]; rate 0.1250 kg/ha): 6.0
- herbicidal effect rating, CYPSE ([8]; 0.0313 kg/ha): 0.0
- herbicidal effect rating, CYPSE ([8]; 0.0625 kg/ha): 0.0
- herbicidal effect rating, CYPSE ([8]; 0.1250 kg/ha): 3.0
- herbicidal effect rating, CYPSE ([8]; 0.2500 kg/ha): 7.0
- Preemergence herbicidal rating CASOB ([9]; 0.0156 kg/ha): 1.0
- Preemergence herbicidal rating CASOB ([9]; 0.0313 kg/ha): 0.0
- Preemergence herbicidal rating CASOB ([9]; 0.0625 kg/ha): 7.0
- Preemergence herbicidal rating CASOB ([9]; 0.1250 kg/ha): 7.0
- Preemergence herbicidal rating CASOB ([9]; 0.2500 kg/ha): 9.0
- Preemergence herbicidal rating CASOB ([9]; 0.5000 kg/ha): 5.0
- Preemergence herbicidal rating AMBEL ([10]; 0.0156 kg/ha): 6.0
- Preemergence herbicidal rating AMBEL ([10]; 0.0313 kg/ha): 7.0
- Preemergence herbicidal rating AMBEL ([10]; 0.0625 kg/ha): 7.0
- Preemergence herbicidal rating AMBEL ([10]; 0.1250 kg/ha): 7.0
- Preemergence herbicidal rating AMBEL ([10]; 0.2500 kg/ha): 9.0
- Preemergence herbicidal rating AMBEL ([10]; 0.5000 kg/ha): 9.0
- Preemergence herbicidal rating ABUTH ([11]; 0.0156 kg/ha): 6.0
- Preemergence herbicidal rating ABUTH ([11]; 0.0313 kg/ha): 9.0
- Preemergence herbicidal rating ABUTH ([11]; 0.0625 kg/ha): 9.0
- Preemergence herbicidal rating ABUTH ([11]; 0.1250 kg/ha): 9.0
- Preemergence herbicidal rating ABUTH ([11]; 0.2500 kg/ha): 9.0
- Preemergence herbicidal rating ABUTH ([11]; 0.5000 kg/ha): 9.0
- Herbicidal rating IPOHE ([12]; rate 0.0156 kg/ha): 9.0
- Herbicidal rating IPOHE ([12]; rate 0.0313 kg/ha): 9.0
- Herbicidal rating IPOHE ([12]; rate 0.0625 kg/ha): 9.0
- Herbicidal rating IPOHE ([12]; rate 0.1250 kg/ha): 9.0

Structure (SMILES): Cn1c(C(F)(F)F)cc(=O)n(-c2cc(N=C3SCC(=O)N3C3CCCC3)c(Cl)cc2F)c1=O [Compound 166, 3-{4-Chloro-5-[(3-cyclopentyl-4-oxo-2-thiazolidinylidene)amino]-2-fluorophenyl}-1-methyl-6-(trifluoromethyl)-2,4(1H,3H)-pyrimidinedione]
- Herbicidal rating ABUTH ([1]; rate 0.0156 kg/ha): 2.0
- Herbicidal rating ABUTH ([1]; rate 0.0313 kg/ha): 1.0
- Herbicidal rating ABUTH ([1]; rate 0.0625 kg/ha): 3.0
- Herbicidal rating ABUTH ([1]; rate 0.1250 kg/ha): 9.0
- Herbicidal rating GLXMAW ([2]; rate 0.0156 kg/ha): 4.0
- Herbicidal rating GLXMAW ([2]; rate 0.0313 kg/ha): 3.5
- Herbicidal rating GLXMAW ([2]; rate 0.0625 kg/ha): 4.0
- Herbicidal rating GLXMAW ([2]; rate 0.1250 kg/ha): 5.0
- Preemergence herbicidal rating IPOHE ([3]; 0.0156 kg/ha): 0.0
- Preemergence herbicidal rating IPOHE ([3]; 0.0313 kg/ha): 3.0
- Preemergence herbicidal rating IPOHE ([3]; 0.1250 kg/ha): 2.0
- Preemergence herbicidal rating IPOHE ([3]; 0.2500 kg/ha): 6.0
- Preemergence herbicidal rating IPOHE ([3]; 0.5000 kg/ha): 8.0
- herbicidal effect rating, ECHORC ([4]; 0.0313 kg/ha): 2.0
- herbicidal effect rating, ECHORC ([4]; 0.0625 kg/ha): 2.0
- herbicidal effect rating, ECHORC ([4]; 0.1250 kg/ha): 2.0
- herbicidal effect rating, ECHORC ([4]; 0.2500 kg/ha): 4.0
- Preemergence herbicidal rating ECHCG ([5]; 0.0156 kg/ha): 0.0
- Preemergence herbicidal rating ECHCG ([5]; 0.0313 kg/ha): 0.0
- Preemergence herbicidal rating ECHCG ([5]; 0.0625 kg/ha): 1.0
- Preemergence herbicidal rating ECHCG ([5]; 0.1250 kg/ha): 0.0
- Preemergence herbicidal rating ECHCG ([5]; 0.2500 kg/ha): 0.0
- Preemergence herbicidal rating ECHCG ([5]; 0.5000 kg/ha): 4.0
- Herbicidal rating ZEAMX ([6]; rate 0.0156 kg/ha): 3.0
- Herbicidal rating ZEAMX ([6]; rate 0.0313 kg/ha): 3.0
- Herbicidal rating ZEAMX ([6]; rate 0.0625 kg/ha): 3.5
- Herbicidal rating ZEAMX ([6]; rate 0.1250 kg/ha): 4.5
- Herbicidal rating SETVI ([7]; rate 0.0156 kg/ha): 0.0
- Herbicidal rating SETVI ([7]; rate 0.0313 kg/ha): 0.0
- Herbicidal rating SETVI ([7]; rate 0.0625 kg/ha): 1.0
- Herbicidal rating SETVI ([7]; rate 0.1250 kg/ha): 2.0
- herbicidal effect rating, CYPSE ([8]; 0.0313 kg/ha): 0.0
- herbicidal effect rating, CYPSE ([8]; 0.0625 kg/ha): 0.0
- herbicidal effect rating, CYPSE ([8]; 0.1250 kg/ha): 0.0
- herbicidal effect rating, CYPSE ([8]; 0.2500 kg/ha): 0.0
- Preemergence herbicidal rating CASOB ([9]; 0.0156 kg/ha): 0.0
- Preemergence herbicidal rating CASOB ([9]; 0.0313 kg/ha): 0.0
- Preemergence herbicidal rating CASOB ([9]; 0.0625 kg/ha): 2.0
- Preemergence herbicidal rating CASOB ([9]; 0.1250 kg/ha): 0.0
- Preemergence herbicidal rating CASOB ([9]; 0.2500 kg/ha): 4.0
- Preemergence herbicidal rating CASOB ([9]; 0.5000 kg/ha): 6.0
- Preemergence herbicidal rating AMBEL ([10]; 0.0156 kg/ha): 1.0
- Preemergence herbicidal rating AMBEL ([10]; 0.0313 kg/ha): 0.0
- Preemergence herbicidal rating AMBEL ([10]; 0.0625 kg/ha): 3.0
- Preemergence herbicidal rating AMBEL ([10]; 0.1250 kg/ha): 6.0
- Preemergence herbicidal rating AMBEL ([10]; 0.2500 kg/ha): 7.0
- Preemergence herbicidal rating AMBEL ([10]; 0.5000 kg/ha): 7.0
- Preemergence herbicidal rating ABUTH ([11]; 0.0156 kg/ha): 0.0
- Preemergence herbicidal rating ABUTH ([11]; 0.0313 kg/ha): 2.0
- Preemergence herbicidal rating ABUTH ([11]; 0.0625 kg/ha): 1.0
- Preemergence herbicidal rating ABUTH ([11]; 0.1250 kg/ha): 7.0
- Preemergence herbicidal rating ABUTH ([11]; 0.2500 kg/ha): 9.0
- Preemergence herbicidal rating ABUTH ([11]; 0.5000 kg/ha): 9.0
- Herbicidal rating IPOHE ([12]; rate 0.0156 kg/ha): 0.0
- Herbicidal rating IPOHE ([12]; rate 0.0313 kg/ha): 2.0
- Herbicidal rating IPOHE ([12]; rate 0.0625 kg/ha): 2.0
- Herbicidal rating IPOHE ([12]; rate 0.1250 kg/ha): 7.0
